Experimental data published in article PMC4708625 (Free Radical Biology & Medicine, 2016).

Key:
[1] = biological target: T1, Carboxylesterase 1 isoform b (Ces1b) (Homo sapiens, UniProt P23141); assay: dose response of Amplex Red to resorufin conversion by recombinant Ces1b (fluorescence); assay type: biochemical
T1 construct: gene CES1
T1 sequence (P23141 18-567): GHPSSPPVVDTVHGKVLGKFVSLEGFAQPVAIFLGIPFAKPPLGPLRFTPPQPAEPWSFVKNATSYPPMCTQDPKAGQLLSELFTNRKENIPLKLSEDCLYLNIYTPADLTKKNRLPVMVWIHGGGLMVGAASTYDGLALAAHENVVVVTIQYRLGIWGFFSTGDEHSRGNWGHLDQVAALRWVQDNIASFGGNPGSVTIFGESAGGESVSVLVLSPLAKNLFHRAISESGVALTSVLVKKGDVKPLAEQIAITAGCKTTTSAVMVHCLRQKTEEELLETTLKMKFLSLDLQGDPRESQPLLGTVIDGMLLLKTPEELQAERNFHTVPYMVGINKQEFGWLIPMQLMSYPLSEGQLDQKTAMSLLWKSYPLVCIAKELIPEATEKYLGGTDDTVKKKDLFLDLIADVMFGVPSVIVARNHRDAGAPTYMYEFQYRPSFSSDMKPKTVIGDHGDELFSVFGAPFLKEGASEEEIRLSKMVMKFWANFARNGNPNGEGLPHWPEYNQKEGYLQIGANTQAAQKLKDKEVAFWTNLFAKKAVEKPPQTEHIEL

[2] = biological target: T1, Carboxylesterase 1 isoform b (Ces1b); assay: biochemical; details: read-out: % inhibition at 100 μM
[3] = biological target: T1, Carboxylesterase 1 isoform b (Ces1b); assay: inhibition of Amplex Red to resorufin conversion by recombinant Ces1b (fluorescence); assay type: biochemical
purified protein = substrate: CC(=O)N1c2ccc(O)cc2Oc2cc(O)ccc21; assay: purified protein; details: docking: carbonyl carbon near Ser221, carbonyl oxygen in oxyanion hole of Gly142 and Gly143

O=S(=O)(F)Cc1ccccc1 [PMSF, Phenylmethyl sulfonyl fluoride]
IC50 [1]: ~5 µM

CN(C)C(=O)C(CCN1CCC(O)(c2ccc(Cl)cc2)CC1)(c1ccccc1)c1ccccc1 [LPM, Loperamide]
inhibition at 100 µM [2]: ~50%

O=[N+]([O-])c1ccc(OP(=O)(O)Oc2ccc([N+](=O)[O-])cc2)cc1 [BNPP, bis(4-nitrophenyl)phosphate]
IC50 [3]: ~0.15 µM

B1: Carboxylesterase 1 isoform b (Ces1b) (Homo sapiens) (protein)
chain: GHPSSPPVVDTVHGKVLGKFVSLEGFAQPVAIFLGIPFAKPPLGPLRFTPPQPAEPWSFVKNATSYPPMCTQDPKAGQLLSELFTNRKENIPLKLSEDCLYLNIYTPADLTKKNRLPVMVWIHGGGLMVGAASTYDGLALAAHENVVVVTIQYRLGIWGFFSTGDEHSRGNWGHLDQVAALRWVQDNIASFGGNPGSVTIFGESAGGESVSVLVLSPLAKNLFHRAISESGVALTSVLVKKGDVKPLAEQIAITAGCKTTTSAVMVHCLRQKTEEELLETTLKMKFLSLDLQGDPRESQPLLGTVIDGMLLLKTPEELQAERNFHTVPYMVGINKQEFGWLIPMQLMSYPLSEGQLDQKTAMSLLWKSYPLVCIAKELIPEATEKYLGGTDDTVKKKDLFLDLIADVMFGVPSVIVARNHRDAGAPTYMYEFQYRPSFSSDMKPKTVIGDHGDELFSVFGAPFLKEGASEEEIRLSKMVMKFWANFARNGNPNGEGLPHWPEYNQKEGYLQIGANTQAAQKLKDKEVAFWTNLFAKKAVEKPPQTEHIEL
Km (purified protein): 55 ± 12 µM
